The test system of data set [1] is Anesthetized Dogs. The experiment in a line: Mean arterial pressure (MAP) in anesthetized dogs. Conditions: iv dose causing a maximum increase in MAP of 20 mm Hg, anesthetized female dogs. Format: in vivo, dog. An outline of the steps:
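Female dogs (12–15 kg) with carotid telemetry implants, thiopental 15 mg/kg i.v. then isoflurane (2.5 to 3 volume %) anesthesia; increasing i.v. doses of agonist with return to baseline between doses. MAP from telemetered arterial pressure; ED20 = dose raising MAP by 20 mm Hg, compared with IUP ED5 as selectivity ratio.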

For data set [2], the target named is T1, α1A (rat submaxillary gland) (Rattus norvegicus, UniProt P43140).
T1 construct: α1A (rat submaxillary gland); from tissue; host or cells: rat submaxillary gland
T1 sequence (P43140 1-466): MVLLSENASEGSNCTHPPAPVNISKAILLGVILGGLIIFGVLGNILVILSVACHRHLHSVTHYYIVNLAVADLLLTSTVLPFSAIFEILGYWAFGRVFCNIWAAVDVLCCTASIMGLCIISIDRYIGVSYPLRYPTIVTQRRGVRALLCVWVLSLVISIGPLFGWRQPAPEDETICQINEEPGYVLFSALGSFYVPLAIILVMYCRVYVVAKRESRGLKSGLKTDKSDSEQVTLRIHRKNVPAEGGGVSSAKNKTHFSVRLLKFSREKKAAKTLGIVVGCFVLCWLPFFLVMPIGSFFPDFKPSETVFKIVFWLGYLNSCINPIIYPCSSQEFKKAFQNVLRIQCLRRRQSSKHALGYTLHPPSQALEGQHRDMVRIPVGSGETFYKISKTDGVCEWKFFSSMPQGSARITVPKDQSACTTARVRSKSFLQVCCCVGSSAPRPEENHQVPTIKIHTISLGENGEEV
The experiment in a line: Radioligand binding with [3H]-prazosin, α1A. To be noted: rat submaxillary gland, [3H]-prazosin. An outline of the steps: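 Radioligand binding with [3H]-prazosin: α1A from rat submaxillary gland; α1b hamster receptor and α1d rat receptor, each expressed in mouse fibroblasts.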

For data set [3], the target named is T2, α1B (rat spleen) (Rattus norvegicus, UniProt P15823).
T2 construct: α1B (rat spleen) and α1D (rat aorta) receptors; from tissue; host or cells: rat spleen
T2 sequence (P15823 1-515): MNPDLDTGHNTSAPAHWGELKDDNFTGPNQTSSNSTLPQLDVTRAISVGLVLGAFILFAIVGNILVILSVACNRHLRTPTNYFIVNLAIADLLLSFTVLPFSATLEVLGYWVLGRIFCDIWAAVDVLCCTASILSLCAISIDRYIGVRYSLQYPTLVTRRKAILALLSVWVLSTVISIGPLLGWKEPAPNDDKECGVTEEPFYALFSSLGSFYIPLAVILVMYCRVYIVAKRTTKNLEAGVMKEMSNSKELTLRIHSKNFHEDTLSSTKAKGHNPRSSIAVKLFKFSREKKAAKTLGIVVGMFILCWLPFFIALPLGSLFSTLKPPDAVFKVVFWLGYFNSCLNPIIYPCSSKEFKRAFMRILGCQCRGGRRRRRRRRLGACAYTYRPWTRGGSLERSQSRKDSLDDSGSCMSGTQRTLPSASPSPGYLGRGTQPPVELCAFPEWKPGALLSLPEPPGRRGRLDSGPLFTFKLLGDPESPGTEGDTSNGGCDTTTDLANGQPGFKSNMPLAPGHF
The experiment in a line: Agonist contraction of smooth muscle tissue, rat spleen. It counts as cell-based. Conditions: rat spleen; read-out: Agonist Tissue Response (pD2) α1B (rat spleen) (converted).

For data set [4], the target named is T3, α1D (rat aorta) (Rattus norvegicus, UniProt P23944).
T3 construct: α1B (rat spleen) and α1D (rat aorta) receptors; from tissue; host or cells: rat aorta strips, endothelium removed
T3 sequence (P23944 1-561): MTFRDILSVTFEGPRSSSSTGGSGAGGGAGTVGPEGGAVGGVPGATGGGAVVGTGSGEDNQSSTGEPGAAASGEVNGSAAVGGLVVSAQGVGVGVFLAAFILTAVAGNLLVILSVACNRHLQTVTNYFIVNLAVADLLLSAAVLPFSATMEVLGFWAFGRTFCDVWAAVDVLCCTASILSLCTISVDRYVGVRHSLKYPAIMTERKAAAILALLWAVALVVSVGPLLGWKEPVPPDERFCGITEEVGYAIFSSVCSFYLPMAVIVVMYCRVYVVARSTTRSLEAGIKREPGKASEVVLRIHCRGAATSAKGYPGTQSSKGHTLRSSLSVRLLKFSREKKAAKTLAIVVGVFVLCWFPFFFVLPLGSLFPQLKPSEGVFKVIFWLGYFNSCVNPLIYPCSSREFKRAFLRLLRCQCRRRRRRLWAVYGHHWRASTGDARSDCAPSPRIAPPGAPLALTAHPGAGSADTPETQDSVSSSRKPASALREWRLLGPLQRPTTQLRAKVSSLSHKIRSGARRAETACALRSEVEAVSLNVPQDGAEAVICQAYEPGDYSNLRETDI
Description: Agonist contraction of smooth muscle tissue, rat aorta. Format: cell-based. Conditions: rat aorta, endothelium removed; for EC50: read-out: Agonist Tissue Response (pD2) α1D (rat aorta) (converted).

The values that follow come from patent US6503935B1, “Imidazoles and related compounds as α1A agonists” (Abbott Laboratories, priority 1998, dated 2003).

pKi: −log10 of the molar value. Counter-ions that a name gives are not always drawn. Bounds are passed on as bounds.

For orientation: pKi means the Ki on a negative log10 scale, so that one unit is a factor of ten. A lower pKi goes with a high Ki.

For `CCS(=O)(=O)Nc1cccc2c1CCCC2c1c[nH]cn1.O=C(O)/C=C\C(=O)O` (single isomer, unassigned; (+)) [Example 33, (+)-N-[5-(1H-imidazol-4-yl)-5,6,7,8-tetrahydro-1-naphthalenyl]ethanesulfonamide, maleate], the “Mean MAP ED20” value in data set [1] (maleate) was determined as 34.0 nmol/kg. The compound further showed a pKi in data set [2] of 7.33. The EC50 in data set [3] was 3.8 µM; in data set [4], greater than 1000 µM.
For `CCS(=O)(=O)Nc1cccc2c1CCCC2c1c[nH]cn1.O=C(O)/C=C\C(=O)O` (single isomer, unassigned; (-)) [Example 34, (−)-N-[5-(1H-imidazol-4-yl)-5,6,7,8-tetrahydro-1-naphthalenyl]ethanesulfonamide, maleate], in data set [1] (maleate), the “Mean MAP ED20” value is reported as greater than 1000 nmol/kg. For the same compound, the pKi in data set [2] was 5.89. The EC50 in data set [3] was greater than 1000 µM. Besides, the “Agonist Tissue Response (pD2) α1D (rat aorta)” value in data set [4] is less than 3.00.
Consider `CCS(=O)(=O)Nc1cccc2c1CCCC2c1c[nH]cn1.O=C(O)/C=C\C(=O)O` (stereo not drawn) [Example 12, N-[5-(1H-imidazol-4-yl)-5,6,7,8-tetrahydro-1-naphthalenyl]ethanesulfonamide, maleate], for which, in data set [1], the “Mean MAP ED20” value is given as 69.3 nmol/kg. The compound further had a pKi in data set [2] of 7.02. Besides, the EC50 in data set [3] and in data set [4] was greater than 1000 µM each time.
On to `CN(c1cccc2c1CCCC2c1c[nH]cn1)S(C)(=O)=O` (stereo not drawn) [Example 15, N-[5,6,7,8-tetrahydro-5-(1H-imidazol-4-yl)-1-naphthalenyl]-N-methylmethanesulfonmamide, maleate], for which the “Mean MAP ED20” value in data set [1] came to 225 nmol/kg. In addition, in data set [2], the pKi is 6.69. Moreover, the values for the EC50 in data set [3] and in data set [4] were 2.24 µM and greater than 1000 µM, respectively.
For `O=C(Nc1cccc2c1CCCC2c1c[nH]cn1)C(F)(F)F` (stereo not drawn) [Example 17, 2,2,2-trifluoro-N-[5-(1H-imidazol-4-yl)-5,6,7,8-tetahydro-1-naphthalenyl]acetamide, maleate] the same measures were 216 nmol/kg, 6.78, 3.39 µM and greater than 1000 µM.
The matching figures for `CS(=O)(=O)Nc1cccc(Cc2c[nH]cn2)c1.O=C(O)/C=C\C(=O)O` [Example 21, N-[3-(1H-imidazol-4-ylmethyl)phenyl]methanesulfonamide, maleate]: 52.3 nmol/kg, 6.44, greater than 1000 µM and greater than 1000 µM.
The matching figures for `COc1ccc(NS(C)(=O)=O)c2c1C(c1c[nH]cn1)CCC2` (stereo not drawn) [Example 26, N-[5,6,7,8-tetrahydro-(1H-imidazol-4-yl)-4-methoxyy-1-naphthalenyl]methanesulfonamide, maleate]: 1850 nmol/kg, 5.77, 18.2 µM and greater than 1000 µM.
As for `Cc1c(Cc2c[nH]cn2)cccc1NS(C)(=O)=O.O=C(O)/C=C\C(=O)O` [Example 28, N-[3-(1H-imidazol-4-ylmethyl)-2-methylphenyl]methanesulfonamide, maleate], the “Mean MAP ED20” value in data set [1] is reported as 158 nmol/kg. For the same compound, the pKi in data set [2] is 6.28. In addition, the values for the EC50 in data set [3] and in data set [4] were 7.76 µM and greater than 1000 µM, respectively.
For the compound `CCS(=O)(=O)Nc1cccc(Cc2c[nH]cn2)c1C.O=C(O)/C=C\C(=O)O` [Example 29, N-[3-(1H-imidazol-4-ylmethyl)-2-methylphenyl]ethanesulfonamide, maleate], the “Mean MAP ED20” value in data set [1] came out at 202 nmol/kg. The compound also showed a pKi in data set [2] of 6.59. Also, the EC50 in data set [3] and in data set [4] was greater than 1000 µM throughout.
On to `CC(c1cccc(NS(C)(=O)=O)c1)c1c[nH]cn1.O=C(O)/C=C\C(=O)O` (stereo not drawn) [Example 31, N-[3-[1-(1H-imidazol-4-yl)ethyl]phenyl]methanesulfonamide, maleate], for which the “Mean MAP ED20” value in data set [1] stood at 234 nmol/kg. For the same compound, the pKi in data set [2] is 6.08. Also, the EC50 in data set [3] and in data set [4] was greater than 1000 µM throughout.
With `CS(=O)(=O)Nc1ccc(F)c2c1CCCC2c1c[nH]cn1.O=C(O)/C=C\C(=O)O` (stereo not drawn) [Example 44, N-[4-fluoro-5-(1H-imidazol-4-yl)-5,6,7,8-tetrahydro-1-naphthalenyl]methanesulfonamide, maleate], the “Mean MAP ED20” value in data set [1] is recorded as 632 nmol/kg. This compound also showed a pKi in data set [2] of 6.51. In addition, the EC50 in data set [3] and in data set [4] was greater than 1000 µM in each case.
Turning to `C=C(c1cccc(NS(=O)(=O)CC)c1)c1c[nH]cn1` [Example 45, N-{3-[1-(1H-imidazol-4-yl)vinyl]phenyly}ethanesulfonamide, maleate], in data set [1], the “Mean MAP ED20” value is listed as 633 nmol/kg. Moreover, in data set [2], the pKi is 6.25. The EC50 in data set [3] and in data set [4] was greater than 1000 µM each time.
